Measured values from patent US12569440B2, “Solid formulation of a 1,2,4-oxadiazole derivative” (ABAXYS THERAPEUTICS, priority 2019, dated 2026).
Blank lines part the entries; values can stand above or below the molecule they belong to.

Columns and labels:
[1] = Formulation study: mixing Compound A with liquid or solid acids, resulting composition and physical stability; assay type: physicochemical; details: Compound A alone, before mixing
Method: In a round bottom flask, to a solution of A in anhydrous Et2O (6 mL/mmol) under argon atmosphere, the acid was added dropwise, as a pure liquid or in anhydrous Et2O (3 mL/mmol) solution. The mixture was allowed to stand for 3 h. The product was then isolated by evaporation of the solvent and was dried under vacuum.
Two different net grinding procedures were used: • Solid mixing 1: In an Eppendorf, A (200 mg, 0.5 mmol) and the acid were added. The Eppendorf was then placed in the grinding device (Retsch MM400) and allowed to stir for 90 min at 30 Hz. • Solid mixing 2: In a mortar, A (200 mg, 0.5 mmol) and acid were added and then manually grinded with a pestle.

[2] = Specific surface area by BET analysis (nitrogen adsorption-desorption at 77 K); assay type: physicochemical; details: for BET surface (specific surface area): nitrogen adsorption at 77 K, 0.05-0.20 P/P0
Method: Specific surface area was measured by Nitrogen adsorption-desorption analyses at 77 K with a volumetric adsorption analyser (Micromeritics 3Flex physisorption apparatus). The Brunauer—Emmet—Teller (BET) method was applied in the 0.05-0.20 P /PO range to calculate the specific surface area.

physical form of free compound [1]: oil
Compound: FC(F)(F)c1ccc(-c2noc(CN3CCCC(CN4CCOCC4)C3)n2)cc1 (stereo not shown) [Compound A]

BET surface (specific surface area) [2]: 6.7 m^2/g | change of specific surface area (BET) ([2]; saccharin after grinding vs commercial, A-2SA vs saccharin alone after same grinding procedure): about −30%
Compound: O=C1NS(=O)(=O)c2ccccc21 [Saccharin (after grinding), 1,1-dioxo-1,2-benzothiazol-3-one]

BET surface (specific surface area) ([2]; listed as Saccharin (commercial)): 9.9 m^2/g
Compound: O=C1NS(=O)(=O)c2ccccc21 [Saccharin, 1,1-dioxo-1,2-benzothiazol-3-one]
